Test system: H9P33, H9P44 and H9P48 cells
Assay: Microarray analysis of definitive endoderm on MEFs vs MATRIGEL +/- Wnt-3A (Table VI)
Conditions: DE treatment in low serum
Procedure: Controls for each group included cells plated on […]-coated dishes and cultured in MEF-conditioned medium or cells plated on MEFs and cultured in ES medium. All groups contained three biological replicates and each biological replicate was repeated on two separate gene chips.
Sample preparation, hybridization, and image analysis were performed according to the Affymetrix Human Genome U133 Plus 2.0 Array. Following normalization and a log transformation, data analysis was performed using OmniViz® software (MA) and […] (VizXLabs, WA). Significant differences in gene expression between the samples were evaluated using analysis of variance and an F-test with adjusted P-value (Benjamini and Hochberg correction) of ≤0.05. Only genes with a present call in at least one group were included in the analysis.

Activin A: a member of the TGFβ superfamily; growth factor (R&D Systems) used to differentiate human embryonic stem cells
mean normalized intensity (log format), Human (clone HSY3RR) neuropeptide Y receptor (NPYR) mRNA (on MATRIGEL): 1.775
mean normalized intensity (log format), Human DNA sequence from clone RP1-181C24 on chromosome 6p11.1-12.2 (3 end of the BMP5 gene) (on MATRIGEL): −3.723
mean normalized intensity (log format), Human Fritz mRNA, complete cds (on MATRIGEL): 0.4366
mean normalized intensity (log format), Human dipeptidyl peptidase IV (CD26) mRNA (on MATRIGEL): −3.611
mean normalized intensity (log format), Human glycophorin HeP2 mRNA, partial cds (on MATRIGEL): −0.8435
mean normalized intensity (log format), Human link protein mRNA, complete cds (on MATRIGEL): −1.94
mean normalized intensity (log format), Human mRNA for alpha-1 type II collagen (on MATRIGEL): −2.8736
mean normalized intensity (log format), Human mRNA for apolipoprotein AI (apo AI) (on MATRIGEL): 0.2151
mean normalized intensity (log format), Human prostatic secretory protein 57 mRNA (on MATRIGEL): −3.013
mean normalized intensity (log format), KIAA0878 protein (on MATRIGEL): 1.1189
mean normalized intensity (log format), KIAA1462 protein (on MATRIGEL): −3.846
mean normalized intensity (log format), MCP-1 = monocyte chemotactic protein (on MATRIGEL): −2.276
mean normalized intensity (log format), Rho GDP dissociation inhibitor (GDI) alpha (on MATRIGEL): −1.544
mean normalized intensity (log format), WAS protein family, member 2 (on MATRIGEL): −2.187
mean normalized intensity (log format), collagen, type IX, alpha 2 (on MATRIGEL): 1.27
mean normalized intensity (log format), collagen, type VI, alpha 1 (on MATRIGEL): −1.418
mean normalized intensity (log format), glycophorin B (includes Ss blood group) (on MATRIGEL): −2.852
mean normalized intensity (log format), hepatocyte nuclear factor 4, alpha (on MATRIGEL): −4.266
mean normalized intensity (log format), homeo box HB9 (on MATRIGEL): −1.656
mean normalized intensity (log format), hypothetical protein FLJ21032 (on MATRIGEL): 0.3557
mean normalized intensity (log format), hypothetical protein FLJ23091 (on MATRIGEL): 0.3234
mean normalized intensity (log format), hypothetical protein FLJ23403 (on MATRIGEL): −1.456
mean normalized intensity (log format), matrix metalloproteinase 14 (membrane-inserted) (on MATRIGEL): −2.057
mean normalized intensity (log format), microfibrillar-associated protein 4 (on MATRIGEL): 0.06379
mean normalized intensity (log format), myristoylated alanine-rich protein kinase C substrate (MARCKS, 80K-L) (on MATRIGEL): −0.7172
mean normalized intensity (log format), neuropilin 1 (on MATRIGEL): −1.623
mean normalized intensity (log format), noggin (on MATRIGEL): −1.636
mean normalized intensity (log format), phorbolin-like protein MDS019 (on MATRIGEL): −1.118
mean normalized intensity (log format), solute carrier family 16 (monocarboxylic acid transporters), member 3 (on MATRIGEL): −0.06641
mean normalized intensity (log format), splicing factor, arginineserine-rich 5 (on MATRIGEL): 0.7481
mean normalized intensity (log format), stanniocalcin 1 (on MATRIGEL): 2.411
mean normalized intensity (log format), 6-phosphofructo-2-kinasefructose-2,6-biphosphatase 4 (on MEFS): 1.6
mean normalized intensity (log format), Cluster Incl. AB028021: Homo sapiens HNF-3beta mRNA for hepatocyte nuclear factor-3 beta (on MEFS): 4.117
mean normalized intensity (log format), ESTs, Highly similar to IHH_HUMAN INDIAN HEDGEHOG PROTEIN PRECURSOR (H. sapiens) (on MEFS): 0.5905
mean normalized intensity (log format), ESTs, Moderately similar to JE0284 Mm-1 cell derived transplantability-associated protein 1b (H. sapiens) (on MEFS): 4.222
mean normalized intensity (log format), ESTs, Weakly similar to FCE2 MOUSE LOW AFFINITY IMMUNOGLOBULIN EPSILON FC RECEPTOR (M. musculus) (on MEFS): 3.48
mean normalized intensity (log format), ESTs, Weakly similar to the 331st table hypothetical protein KIAA0555 (H. sapiens) (on MEFS): 0.4436
mean normalized intensity (log format), G protein-coupled receptor (on MEFS): 5.053
mean normalized intensity (log format), G protein-coupled receptor 49 (on MEFS): 2.505
mean normalized intensity (log format), Homo sapiens HNF-3beta mRNA for hepatocyte nuclear factor-3 beta (on MEFS): 2.825
mean normalized intensity (log format), Homo sapiens KIAA0878 protein (KIAA0878), mRNA (on MEFS): 5.654
mean normalized intensity (log format), Homo sapiens Kell blood group (KEL), mRNA (on MEFS): −0.3839
mean normalized intensity (log format), Homo sapiens MLL septin-like fusion (MSF), mRNA (on MEFS): −1.5
mean normalized intensity (log format), Homo sapiens Mix-like homeobox protein 1 (MILD1) mRNA (on MEFS): 0.922
mean normalized intensity (log format), Homo sapiens Rho GTPase activating protein 6 (ARHGAP6), transcript variant 2, mRNA (on MEFS): −1.285
mean normalized intensity (log format), Homo sapiens TBX3-iso protein (TBX3-iso), mRNA (on MEFS): 1.07
mean normalized intensity (log format), Homo sapiens angiopoietin 2 (ANGPT2), mRNA (on MEFS): 0.5968
mean normalized intensity (log format), Homo sapiens ankyrin-like with transmembrane domains 1 (ANKTM1), mRNA (on MEFS): 2.819
mean normalized intensity (log format), Homo sapiens apolipoprotein A-I (APOA1), mRNA (on MEFS): 2.469
mean normalized intensity (log format), Homo sapiens apolipoprotein A-II (APOA2), mRNA (on MEFS): 4.469
mean normalized intensity (log format), Homo sapiens arylsulfatase E (chondrodysplasia punctata 1) (ARSE), mRNA (on MEFS): 3.184
mean normalized intensity (log format), Homo sapiens atrophin-1 interacting protein 1; activin receptor interacting protein 1 (KIAA0705), mRNA (on MEFS): −1.32
mean normalized intensity (log format), Homo sapiens beta-site APP cleaving enzyme (BACE) mRNA (on MEFS): 1.754
mean normalized intensity (log format), Homo sapiens cDNA FLJ11550 fis, clone HEMBA1002970 (on MEFS): 4.216
mean normalized intensity (log format), Homo sapiens cDNA FLJ12993 fis, clone NT2RP3000197 (on MEFS): 2.069
mean normalized intensity (log format), Homo sapiens cDNA FLJ13221 fis, clone NT2RP4002075 (on MEFS): 1.31
mean normalized intensity (log format), Homo sapiens cardiac ventricular troponin C mRNA (on MEFS): 1.4377
mean normalized intensity (log format), Homo sapiens cartilage linking protein 1 (CRTL1), mRNA (on MEFS): −0.8052
mean normalized intensity (log format), Homo sapiens cell adhesion molecule with homology to L1CAM (close homologue of L1) (CHL1), mRNA (on MEFS): −2.5002
mean normalized intensity (log format), Homo sapiens chromosome 19, cosmid R31181 (on MEFS): 0.2239
mean normalized intensity (log format), Homo sapiens clone 23736 mRNA sequence (on MEFS): 4.507
mean normalized intensity (log format), Homo sapiens cryptic mRNA, complete cds (on MEFS): −0.6735
mean normalized intensity (log format), Homo sapiens cystatin SA (CST2), mRNA (on MEFS): 2.1671
mean normalized intensity (log format), Homo sapiens cystatin SN (CST1), mRNA (on MEFS): 4.64
mean normalized intensity (log format), Homo sapiens cytidine deaminase (CDA), mRNA (on MEFS): −1.67
mean normalized intensity (log format), Homo sapiens dual specificity phosphatase 4 (DUSP4), mRNA (on MEFS): 4.122
mean normalized intensity (log format), Homo sapiens fibroblast growth factor 8 (androgen-induced) (FGF8), mRNA (on MEFS): 0.01583
mean normalized intensity (log format), Homo sapiens fibroblast growth factor 17 (FGF17), mRNA (on MEFS): 2.4872
mean normalized intensity (log format), Homo sapiens frizzled-related protein (FRZB), mRNA (on MEFS): 3.676
mean normalized intensity (log format), Homo sapiens gastrin-releasing peptide (GRP), mRNA (on MEFS): 0.5098
mean normalized intensity (log format), Homo sapiens glycophorin B (includes Ss blood group) (GYPB), mRNA (on MEFS): 0.1803
mean normalized intensity (log format), Homo sapiens glycophorin E (GYPE), mRNA (on MEFS): −1.501
